Reference: US20250018047A1, “METHODS AND COMPOSITIONS FOR TARGETED PROTEIN DEGRADATION” (Ranok Therapeutics (Hangzhou) Co. Ltd., priority 2021, published 2025)
Counter-ions that a name gives are not always drawn.

Columns and labels:
[1] = system: A-427 human lung carcinoma; assay: CellTiter-Glo cancer cell line proliferation assay, A-427; format: cell-based; details: Homo sapiens, A-427, 24 hr, read-out: A427 at 24 hrs, IC50
How it was run: (§1)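 Cells plated at 4,000/well, grown 24 h at 37 °C/5% CO2, then exposed to compound concentration series (0.5% DMSO final) for 24 h. Viability read by CellTiter-Glo luminescence; IC50 values calculated.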

KRAS(G12D)/SOS1 = target: T1, KRAS(G12D)/SOS1 (Homo sapiens, UniProt P01116, G12D); assay: KRAS(G12D)/SOS1 homogeneous time-resolved fluorescence (HTRF) assay; format: binding; details: absence of GTP, 4° C. for 3 hr
T1 construct: purchased Cisbio 63ADK000CB16PEG
T1 sequence (P01116 1-188 isoform P01116-2 G12D): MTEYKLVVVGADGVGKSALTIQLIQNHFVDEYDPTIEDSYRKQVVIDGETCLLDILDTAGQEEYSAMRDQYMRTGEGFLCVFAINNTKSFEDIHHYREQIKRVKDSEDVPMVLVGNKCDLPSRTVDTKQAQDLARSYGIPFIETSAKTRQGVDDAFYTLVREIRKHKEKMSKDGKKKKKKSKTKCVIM
Method: The test compound was mixed and incubated with reaction components, incubated in a sealed plate at 4° C. for 3 hr and fluorescence was measured using a PerkinElmer Envision plate reader.

[2] = system: AsPC-1 human pancreatic adenocarcinoma; assay: CellTiter-Glo cancer cell line proliferation assay, AsPC-1; format: cell-based; details: Homo sapiens, ASPC1, 24 hr
How it was run: as §1

[3] = target: BA/F3-KRAS(G12D) murine pro-B cell line stably expressing KRAS(G12D) (Homo sapiens, UniProt P01116, G12D, cells depend on it); assay: CellTiter-Glo cancer cell line proliferation assay, BA/F3-KRAS(G12D); format: cell-based; details: 24 hr, read-out: BAF3 at 24 hrs, IC50
Chain of BA/F3-KRAS(G12D) murine pro-B cell line stably expressing KRAS(G12D) (P01116 whole entry G12D): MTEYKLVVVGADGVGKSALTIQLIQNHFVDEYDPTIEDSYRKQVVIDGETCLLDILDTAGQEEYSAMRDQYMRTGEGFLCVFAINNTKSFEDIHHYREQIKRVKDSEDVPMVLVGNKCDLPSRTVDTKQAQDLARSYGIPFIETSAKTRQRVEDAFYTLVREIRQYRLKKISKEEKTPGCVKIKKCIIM
Method: The following cancer cell lines were employed: AsPC-1 human pancreatic adenocarcinoma (ATCC, #CRL-1682); A-427 human lung carcinoma (ATCC, #HTB-53); BA/F3-KRAS(G12D) murine pro-B cell line stably expressing KRAS(G12D) (Precedo, Hefei, China). Cell lines were cultured according to ATCC and recommendations. BA/F3-KRAS(G12D) cells were cultured in RPMI 1640 media with 10% fetal calf serum, 100 units/mL penicillin and […] streptomycin, and 1% glutamine.
CellTiter-Glo® Reagent Cancer Cell Line Proliferation Assays
Cells were plated in 96-well tissue culture plates at 4,000 cells/well and incubated at 37° C./5% CO2 for 24 hr in 100 μl of media. 3-fold serial dilutions of each test compound were prepared ranging from 20 μM to 1.02 nM. Cells were then treated with test compounds at various concentrations with a final concentration of 0.5% DMSO/well, and then incubated at 37° C./5% CO2 for 24 hr. 100 μl of CellTiter-Glo® Reagent (Promega Corporation, Madison, WI) was added to each well and processed according manufacturer's protocol. Results were analyzed and IC50-values were calculated in GraphPad 7 software.

| Structure (SMILES) | IC50 [1] [nM] | IC50 (KRAS(G12D)/SOS1) [nM] | IC50 [2] [nM] | GI50 [3] [nM] |
| --- | --- | --- | --- | --- |
| C#Cc1cccc2cccc(-c3ncc4c(N5CC6CCC(C5)N6)nc(OC[C@@H]5C[C@H](N6CCN(Cc7ccc8c(c7)C(=O)N(C7CCC(=O)NC7=O)C8=O)CC6)CN5C)nc4c3F)c12 (stereo partly drawn) [Compound 7, 5-((4-((3S,5S)-5-(((4-(3,8-diazabicyclo[3.2.1]octan-3-yl)-7-(8-ethynylnaphthalen-1-yl)-8-fluoropyrido[4,3-d]pyrimidin-2-yl)oxy)methyl)-1-methylpyrrolidin-3-yl)piperazin-1-yl)methyl)-2-(2,6-dioxopiperidin-3-yl)isoindoline-1,3-dione formate] | > 1000 | < 100 | > 1000 | > 1000 |
| Cc1ncsc1-c1ccc(CNC(=O)[C@@H]2C[C@@H](O)CN2C(=O)[C@@H](NC(=O)C2CCN([C@H]3C[C@@H](COc4nc(N5CC6CCC(C5)N6)c5cnc(-c6cccc7ccccc67)c(F)c5n4)N(C)C3)CC2)C(C)(C)C)cc1 [Compound 23, 1-((3S,5S)-5-(((4-(3,8-diazabicyclo[3.2.1]octan-3-yl)-8-fluoro-7-(naphthalen-1-yl)pyrido[4,3-d]pyrimidin-2-yl)oxy)methyl)-1-methylpyrrolidin-3-yl)-N—((S)-1-((2S,4R)-4-hydroxy-2-((4-(4-methylthiazol-5-yl)benzyl)carbamoyl)pyrrolidin-1-yl)-3,3-dimethyl-1-oxobutan-2-yl)piperidine-4-carboxamide formate] | > 1000 | > 1000 | > 1000 | > 1000 |
| CN1C[C@@H](N2CCC(C(=O)Nc3ccc4c(c3)C(=O)N(C3CCC(=O)NC3=O)C4=O)CC2)C[C@H]1COc1nc(N2CC3CCC(C2)N3)c2cnc(-c3cccc4cccc(Cl)c34)c(F)c2n1 (stereo partly drawn) [Compound 10, 1-((3S,5S)-5-(((4-(3,8-diazabicyclo[3.2.1]octan-3-yl)-7-(8-chloronaphthalen-1-yl)-8-fluoropyrido[4,3-d]pyrimidin-2-yl)oxy)methyl)-1-methylpyrrolidin-3-yl)-N-(2-(2,6-dioxopiperidin-3-yl)-1,3-dioxoisoindolin-5-yl)piperidine-4-carboxamide formate] | > 1000 | < 100 | > 1000 | > 1000 |
| Cc1ncsc1-c1ccc(CNC(=O)[C@@H]2C[C@@H](O)CN2C(=O)[C@@H](NC(=O)CCNC(=O)C2CCN([C@H]3C[C@@H](COc4nc(N5CC6CCC(C5)N6)c5cnc(-c6cccc7cccc(Cl)c67)c(F)c5n4)N(C)C3)CC2)C(C)(C)C)cc1 [Compound 27, 1-((3S,5S)-5-(((4-(3,8-diazabicyclo[3.2.1]octan-3-yl)-7-(8-chloronaphthalen-1-yl)-8-fluoropyrido[4,3-d]pyrimidin-2-yl)oxy)methyl)-1-methylpyrrolidin-3-yl)-N-(3-(((S)-1-((2S,4R)-4-hydroxy-2-((4-(4-methylthiazol-5-yl)benzyl)carbamoyl)pyrrolidin-1-yl)-3,3-dimethyl-1-oxobutan-2-yl)amino)-3-oxopropyl)piperidine-4-carboxamide formate] | > 1000 | 100 to 1000 | > 1000 | > 1000 |
| C#Cc1cccc2cccc(-c3ncc4c(N5CC6CCC(C5)N6)nc(OCCN5CCN(C(=O)C6CCN(c7ccc8c(c7)CN(C7CCC(=O)NC7=O)C8=O)CC6)CC5)nc4c3F)c12 (centres unmarked) [Compound 17, 3-(5-(4-(4-(2-((4-(3,8-diazabicyclo[3.2.1]octan-3-yl)-7-(8-ethynylnaphthalen-1-yl)-8-fluoropyrido[4,3-d]pyrimidin-2-yl)oxy)ethyl)piperazine-1-carbonyl)piperidin-1-yl)-1-oxoisoindolin-2-yl)piperidine-2,6-dione formate] | > 1000 | < 100 | > 1000 | > 1000 |
